Laboratory results from PubChem BioAssay (NCI).
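Test compounds were applied to cells in 96-well plates for 48 hours at 5 doses. GI50: concentration for 50% inhibition of growth. At the TGI there is no net growth.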

What was measured:
Assay in all cases: NCI tumour cell line growth inhibition, 48 h
786-0 renal = tested on: 786-0 renal
A498 renal = tested on: A498 renal
A549 NSCLC = tested on: A549 NSCLC
ACHN renal = tested on: ACHN renal
BT-549 breast = tested on: BT-549 breast
CAKI-1 renal = tested on: CAKI-1 renal
CCRF-CEM leukemia = tested on: CCRF-CEM leukemia
COLO 205 colon = tested on: COLO 205 colon
DU-145 prostate = tested on: DU-145 prostate
EKVX NSCLC = tested on: EKVX NSCLC
HCC-2998 colon = tested on: HCC-2998 colon
HCT-116 colon = tested on: HCT-116 colon
HCT-15 colon = tested on: HCT-15 colon
HL-60(TB) leukemia = tested on: HL-60(TB) leukemia
HOP-62 NSCLC = tested on: HOP-62 NSCLC
HOP-92 NSCLC = tested on: HOP-92 NSCLC
HT29 colon = tested on: HT29 colon
IGROV1 ovarian = tested on: IGROV1 ovarian
K-562 leukemia = tested on: K-562 leukemia
KM12 colon = tested on: KM12 colon
LOX IMVI melanoma = tested on: LOX IMVI melanoma
M14 melanoma = tested on: M14 melanoma
MALME-3M melanoma = tested on: MALME-3M melanoma
MCF7 breast = tested on: MCF7 breast
MDA-MB-231 breast = tested on: MDA-MB-231 breast
MDA-MB-435 = tested on: MDA-MB-435
MOLT-4 leukemia = tested on: MOLT-4 leukemia
NCI-H226 lung = tested on: NCI-H226 lung
NCI-H23 lung = tested on: NCI-H23 lung
NCI-H460 lung = tested on: NCI-H460 lung
NCI-H522 lung = tested on: NCI-H522 lung
NCI/ADR-RES ovarian = tested on: NCI/ADR-RES ovarian
OVCAR-3 ovarian = tested on: OVCAR-3 ovarian
OVCAR-4 ovarian = tested on: OVCAR-4 ovarian
OVCAR-5 ovarian = tested on: OVCAR-5 ovarian
OVCAR-8 ovarian = tested on: OVCAR-8 ovarian
PC-3 prostate = tested on: PC-3 prostate
RPMI-8226 leukemia = tested on: RPMI-8226 leukemia
RXF 393 renal = tested on: RXF 393 renal
SF-268 CNS = tested on: SF-268 CNS
SF-295 CNS = tested on: SF-295 CNS
SF-539 CNS = tested on: SF-539 CNS
SK-MEL-2 melanoma = tested on: SK-MEL-2 melanoma
SK-MEL-28 melanoma = tested on: SK-MEL-28 melanoma
SK-MEL-5 melanoma = tested on: SK-MEL-5 melanoma
SK-OV-3 ovarian = tested on: SK-OV-3 ovarian
SN12C renal = tested on: SN12C renal
SNB-19 CNS = tested on: SNB-19 CNS
SNB-75 CNS = tested on: SNB-75 CNS
SR leukemia = tested on: SR leukemia
SW-620 colon = tested on: SW-620 colon
T-47D breast = tested on: T-47D breast
U251 CNS = tested on: U251 CNS
UACC-257 melanoma = tested on: UACC-257 melanoma
UACC-62 melanoma = tested on: UACC-62 melanoma
UO-31 renal = tested on: UO-31 renal

Clc1ccc(Cn2c(CN3CCCC3)nc3ccccc32)cc1
GI50 (786-0 renal): 16.8 µM | TGI (786-0 renal): 32.9 µM | GI50 (A498 renal): 11.3 µM | TGI (A498 renal): 31.3 µM | GI50 (A549 NSCLC): 26.9 µM | TGI (A549 NSCLC): > 100 µM | GI50 (ACHN renal): 31.1 µM | TGI (ACHN renal): > 100 µM | GI50 (BT-549 breast): 18.1 µM | TGI (BT-549 breast): 38.8 µM | GI50 (CAKI-1 renal): 14.7 µM | TGI (CAKI-1 renal): 54.8 µM | GI50 (CCRF-CEM leukemia): 27 µM | TGI (CCRF-CEM leukemia): > 100 µM | GI50 (COLO 205 colon): 17.6 µM | TGI (COLO 205 colon): 33.4 µM | GI50 (DU-145 prostate): 32.9 µM | TGI (DU-145 prostate): > 100 µM | GI50 (EKVX NSCLC): 17.5 µM | TGI (EKVX NSCLC): 67.7 µM | GI50 (HCC-2998 colon): 21.6 µM | TGI (HCC-2998 colon): 54 µM | GI50 (HCT-116 colon): 11 µM | TGI (HCT-116 colon): 24.7 µM | GI50 (HCT-15 colon): 24.7 µM | TGI (HCT-15 colon): 87.7 µM | GI50 (HL-60(TB) leukemia): 23.8 µM | TGI (HL-60(TB) leukemia): 65.2 µM | GI50 (HOP-62 NSCLC): 20.8 µM | TGI (HOP-62 NSCLC): 61.5 µM | GI50 (HOP-92 NSCLC): 6.03 µM | TGI (HOP-92 NSCLC): 29.5 µM | GI50 (HT29 colon): 15.5 µM | TGI (HT29 colon): 38.4 µM | GI50 (IGROV1 ovarian): 23.3 µM | TGI (IGROV1 ovarian): > 100 µM | GI50 (K-562 leukemia): 19.4 µM | TGI (K-562 leukemia): > 100 µM | GI50 (KM12 colon): 19.5 µM | TGI (KM12 colon): 53.4 µM | GI50 (LOX IMVI melanoma): 17 µM | TGI (LOX IMVI melanoma): 34.1 µM | GI50 (M14 melanoma): 17.1 µM | TGI (M14 melanoma): 34 µM | GI50 (MALME-3M melanoma): 14.9 µM | TGI (MALME-3M melanoma): 33.4 µM | GI50 (MCF7 breast): 17 µM | TGI (MCF7 breast): 32.6 µM | GI50 (MDA-MB-231 breast): 18.8 µM | TGI (MDA-MB-231 breast): 41.8 µM | GI50 (MDA-MB-435): 17.1 µM | TGI (MDA-MB-435): 41.2 µM | GI50 (MOLT-4 leukemia): 28.3 µM | TGI (MOLT-4 leukemia): 95.9 µM | GI50 (NCI-H226 lung): 14.8 µM | TGI (NCI-H226 lung): 41.8 µM | GI50 (NCI-H23 lung): 19 µM | TGI (NCI-H23 lung): 59.9 µM | GI50 (NCI-H460 lung): 14.5 µM | TGI (NCI-H460 lung): 34.4 µM | GI50 (NCI-H522 lung): 16.3 µM | TGI (NCI-H522 lung): 33.7 µM | GI50 (NCI/ADR-RES ovarian): 24.3 µM | TGI (NCI/ADR-RES ovarian): > 100 µM | GI50 (OVCAR-3 ovarian): 18.4 µM | TGI (OVCAR-3 ovarian): 47.7 µM | GI50 (OVCAR-4 ovarian): 21.9 µM | TGI (OVCAR-4 ovarian): 93.3 µM | GI50 (OVCAR-5 ovarian): 25.3 µM | TGI (OVCAR-5 ovarian): 87.8 µM | GI50 (OVCAR-8 ovarian): 29.7 µM | TGI (OVCAR-8 ovarian): > 100 µM | GI50 (PC-3 prostate): 19.6 µM | TGI (PC-3 prostate): 58.3 µM | GI50 (RPMI-8226 leukemia): 16.4 µM | TGI (RPMI-8226 leukemia): 41.7 µM | GI50 (RXF 393 renal): 14.1 µM | TGI (RXF 393 renal): 30.2 µM | GI50 (SF-268 CNS): 30.8 µM | TGI (SF-268 CNS): > 100 µM | GI50 (SF-295 CNS): 14.3 µM | TGI (SF-295 CNS): 31.4 µM | GI50 (SF-539 CNS): 18 µM | TGI (SF-539 CNS): 37.1 µM | GI50 (SK-MEL-2 melanoma): 17.8 µM | TGI (SK-MEL-2 melanoma): 34.6 µM | GI50 (SK-MEL-28 melanoma): 24.6 µM | TGI (SK-MEL-28 melanoma): 65.5 µM | GI50 (SK-MEL-5 melanoma): 13.3 µM | TGI (SK-MEL-5 melanoma): 26.2 µM | GI50 (SK-OV-3 ovarian): 20 µM | TGI (SK-OV-3 ovarian): 48.8 µM | GI50 (SN12C renal): 30.1 µM | TGI (SN12C renal): > 100 µM | GI50 (SNB-19 CNS): 22.1 µM | TGI (SNB-19 CNS): 57.1 µM | GI50 (SNB-75 CNS): 21.5 µM | TGI (SNB-75 CNS): 82.9 µM | GI50 (SR leukemia): 23.5 µM | TGI (SR leukemia): 75.4 µM | GI50 (SW-620 colon): 14.8 µM | TGI (SW-620 colon): 33.3 µM | GI50 (T-47D breast): 19.7 µM | TGI (T-47D breast): 83.5 µM | GI50 (U251 CNS): 15.2 µM | TGI (U251 CNS): 31.4 µM | GI50 (UACC-257 melanoma): 20 µM | TGI (UACC-257 melanoma): 55 µM | GI50 (UACC-62 melanoma): 17.4 µM | TGI (UACC-62 melanoma): 47.3 µM | GI50 (UO-31 renal): 12.4 µM | TGI (UO-31 renal): 36.5 µM
